Data from ChEMBL document CHEMBL4376820, “Homodimeric Tobramycin Adjuvant Repurposes Novobiocin as an Effective Antibacterial Agent against Gram-Negative Bacteria” (J Med Chem, 2019).

Columns and labels:
[1] = Toxicity in Galleria mellonella larvae MDR Acinetobacter baumannii isolate assessed as mortality at 100 mg/kg measured after 24 hrs relative to control; assay type: ADME, organism-based; conditions: in vivo, read-out: Activity
Pseudomonas aeruginosa [2] = assay: Synergistic antibacterial activity against wild type Pseudomonas aeruginosa PAO1 assessed as potentiation of minocycline-induced antibacterial effect incubated for 18 hrs by checkerboard assay; assay type: functional, organism-based
Pseudomonas aeruginosa [3] = assay: Induction of outer membrane permeabilization in Pseudomonas aeruginosa PAO1 assessed as increase in accumulation of NPN by measuring fluorescence intensity measured immediately by NPN dye uptake assay; assay type: organism-based
Acinetobacter baumannii = assay: Antibacterial activity against novobiocin-resistant Acinetobacter baumannii ATCC 17978 mutant generated from seven serial passages by checkerboard assay; assay type: functional

NC[C@H]1O[C@H](O[C@H]2[C@H](OCCCCc3cn(CCCCO[C@@H]4[C@@H](O[C@H]5O[C@H](CO)[C@@H](O)[C@H](N)[C@H]5O)[C@H](N)C[C@H](N)[C@H]4O[C@H]4O[C@H](CN)[C@@H](O)C[C@H]4N)nn3)[C@@H](O[C@H]3O[C@H](CO)[C@@H](O)[C@H](N)[C@H]3O)[C@H](N)C[C@@H]2N)[C@H](N)C[C@@H]1O.O=C(O)C(F)(F)F.O=C(O)C(F)(F)F.O=C(O)C(F)(F)F.O=C(O)C(F)(F)F.O=C(O)C(F)(F)F.O=C(O)C(F)(F)F.O=C(O)C(F)(F)F.O=C(O)C(F)(F)F.O=C(O)C(F)(F)F.O=C(O)C(F)(F)F
mortality at 24 h [1]: 100% | Activity (Pseudomonas aeruginosa [2]): Dose-dependent effect | Activity (Pseudomonas aeruginosa [3]): Dose-dependent effect | MIC (Acinetobacter baumannii): 128 µg/mL
